The results in this text go back to ChEMBL document CHEMBL1949550, “Pre-microRNA binding aminoglycosides and antitumor drugs as inhibitors of Dicer catalyzed microRNA processing” (Bioorg Med Chem Lett, 2012).

For series [1], the system named is Nucleic Acid. Kind of series: Binding affinity to human pre-hsa-mir-155 miRNA assessed as inhibition of dicer-catalysed (33P)-labelled pre-miRNA processing at 1 mM after 1 hr by PAGE analysis. Format: nucleic-acid assay. The conditions noted are these: for residual activity: values are per cent of control.
The subject of series [2] is Nucleic Acid. Description: Binding affinity to human pre-hsa-mir-155 miRNA assessed as increase in melting temperature. Format: nucleic-acid assay.
Series [3] has as its system Nucleic Acid. Description: Binding affinity to human pre-hsa-mir-155 miRNA assessed as melting temperature at 12 uM (reference value: 48 degC). Format: nucleic-acid assay.
For series [4], the system named is Nucleic Acid. Kind of series: Binding affinity to human pre-hsa-mir-155 miRNA assessed as melting temperature at 10 uM (reference value: 48 degC). Format: nucleic-acid assay.
Series [5] relates to Nucleic Acid. Kind of series: Binding affinity to human pre-hsa-mir-155 miRNA assessed as melting temperature at 2 uM (reference value: 48 degC). Format: nucleic-acid assay.
For series [6], the target named is Nucleic Acid. Kind of series: Binding affinity to human pre-hsa-mir-155 miRNA assessed as increase in fluorescence after 30 mins by fluorimetry. Format: nucleic-acid assay.
Series [7] addresses Nucleic Acid. Kind of series: Displacement of ethidium bromide from human pre-hsa-mir-155 miRNA after 30 mins. Format: nucleic-acid assay.
Series [8] can be described thus: Aqueous solubility of the compound. The conditions noted are these: buffer. Format: physicochemical.
Series [9] concerns Nucleic Acid. Kind of series: Binding affinity to human pre-hsa-mir-155 miRNA assessed as melting temperature at 112 uM (reference value: 48 degC). Format: nucleic-acid assay.

Calls of active or inactive are those of the source. No cut-off for these calls is given here. *1 amine or outer side, *2 acyl side, *3 side chain or, on linkers, in order; H or OH if unused. Where a SMILES comes first, the peptide text is derived from it. Bridges are numbered along the chain shown (N, C = ends). Roman numbers before positions name the chains, in order. [ ]: non-standard residue; d: D form. Actinocin(9to1) = Cc1c2oc3c(C)ccc(C(=O)[*:1])c3nc-2c(C(=O)[*:2])c(N)c1=O; NMeV = CN[C@H](C(=O)O)C(C)C; Sar = CNCC(=O)O

Turning to `NC[C@@H]1O[C@H](O[C@H]2[C@@H](O)[C@H](O[C@@H]3[C@@H](O)[C@H](N)C[C@H](N)[C@H]3O[C@H]3O[C@H](CN)[C@@H](O)[C@H](O)[C@H]3N)O[C@@H]2CO)[C@H](N)[C@@H](O)[C@@H]1O` (stereo in doubt; form 1), the residual activity (commonly the activity still measured, relative to the control) in series [1] was determined as 10%. Besides, the Activity entry in series [2] was “Dose-dependent effect”. The Tm in [3] was greater than 70 °C; in series [4], greater than 70 °C; in series [5], 50 °C.
For `CC[n+]1c(-c2ccccc2)c2cc(N)ccc2c2ccc(N)cc21` [HOMIDIUM BROMIDE], the Kd (in general, the constant that tells how readily two partners part at equilibrium) in series [6] is 5 µM.
With `CN1CCN(c2ccc3[nH]c(-c4ccc5[nH]c(-c6ccc(O)cc6)nc5c4)nc3c2)CC1`, in series [6], the Kd worked out at 14 µM. The residual activity in series [1] came out at 40%.
Compound `CN[C@@H]1[C@H](O[C@H]2[C@H](O[C@H]3[C@H](O)[C@@H](O)[C@H](NC(=N)N)[C@@H](O)[C@@H]3NC(=N)N)O[C@@H](C)[C@]2(O)CO)O[C@@H](CO)[C@H](O)[C@H]1O` [DIHYDROSTREPTOMYCIN] returned a Kd in series [7] greater than 100 µM.
In the case of `NC[C@H]1O[C@H](O[C@H]2[C@H](O)[C@@H](O[C@H]3O[C@H](CO)[C@@H](O)[C@H](N)[C@H]3O)[C@H](N)C[C@@H]2N)[C@H](N)C[C@@H]1O` [TOBRAMYCIN], the Kd in series [7] was greater than 100 µM.
Same read-out and setting: in the case of `NC[C@@H]1O[C@H](O[C@H]2[C@@H](O)[C@H](O[C@@H]3[C@@H](O)[C@H](N)C[C@H](N)[C@H]3O[C@H]3O[C@H](CN)[C@@H](O)[C@H](O)[C@H]3N)O[C@@H]2CO)[C@H](N)[C@@H](O)[C@@H]1O` (stereo in doubt; form 2) [FRAMYCETIN] it was 11 µM.
`CCN(CC)CCCC(C)Nc1c2ccc(Cl)cc2nc2ccc(OC)cc12` (stereo unspecified): the inhibition result in series [1] is “inactive”.
As for `COc1ccc2cc3[n+](cc2c1OC)CCc1cc2c(cc1-3)OCO2`, the inhibition entry in [1] is “inactive”.
`CCN[C@@H]1C[C@H](N)[C@@H](O[C@H]2OC(CN)=CC[C@H]2N)[C@H](O)[C@H]1O[C@H]1OC[C@](C)(O)[C@H](NC)[C@H]1O` [NETILMICIN] gave a Kd in [7] greater than 100 µM.
For `Cc1c2c(c(O)c3c(O)ccc(Cl)c13)C(=O)[C@]1(O)C(=O)C(C(N)=O)=C(O)[C@H](N(C)C)[C@@H]1C2.Cl`, in series [8], the solubility result is “soluble”. The outcome in series [7] was inactive.
In the case of `NCC[C@H](O)C(=O)N[C@@H]1C[C@H](N)[C@@H](O[C@H]2O[C@H](CN)[C@@H](O)[C@H](O)[C@H]2O)[C@H](O)[C@H]1O[C@H]1O[C@H](CO)[C@@H](O)[C@H](N)[C@H]1O` [AMIKACIN], the Kd in series [7] is greater than 100 µM.
For the compound `NC[C@@H]1O[C@H](O[C@H]2[C@@H](O)[C@H](O[C@@H]3[C@@H](O)[C@H](N)C[C@H](N)[C@H]3O[C@H]3O[C@H](CN)[C@@H](O)[C@H](O)[C@H]3N)O[C@@H]2CO)[C@H](N)[C@@H](O)[C@@H]1O` (stereo in doubt; form 2), in [1], the residual activity was found to be 10%. The Tm in [3] is greater than 70 °C; in series [5] it was 48 °C.
`Cc1c2c(c(O)c3c(O)cccc13)C(=O)[C@]1(O)C(=O)C(C(N)=O)=C(O)[C@H](N(C)C)[C@@H]1C2.Cl`: the solubility entry in series [8] is listed as “soluble”. For the same compound, the outcome in [7] was inactive.
On to `N=C(N)c1ccc(-c2cc3ccc(C(=N)N)cc3[nH]2)cc1`, for which the residual activity in series [1] was 100%.
With `CN(C)[C@H]1C(O)=C(C(N)=O)C(=O)[C@@]2(O)C(O)=C3C(=O)c4c(O)cccc4[C@@](C)(O)[C@H]3C[C@@H]12`, in series [7], the result was inactive.
Turning to `CN(C)[C@@H]1C(O)=C(C(N)=O)C(=O)[C@@]2(O)C(O)=C3C(=O)c4c(O)cccc4[C@@](C)(O)[C@H]3C[C@@H]12`, in series [7], the outcome was inactive.
`CN[C@H](CC(C)C)C(=O)N[C@H]1C(=O)N[C@@H](CC(N)=O)C(=O)N[C@H]2C(=O)N[C@H]3C(=O)N[C@H](C(=O)N[C@H](C(=O)O)c4cc(O)cc(O)c4-c4cc3ccc4O)[C@H](O)c3ccc(c(Cl)c3)Oc3cc2cc(c3O[C@@H]2O[C@H](CO)[C@@H](O)[C@H](O)[C@H]2O[C@H]2C[C@](C)(N)[C@H](O)[C@H](C)O2)Oc2ccc(cc2Cl)[C@H]1O`: the inhibition result in series [1] is “inactive”.
For the compound `CN[C@@H]1[C@H](O)[C@H](NC)[C@H]2O[C@@]3(O)C(=O)C[C@@H](C)O[C@H]3O[C@@H]2[C@H]1O` [SPECTINOMYCIN], the Kd in [7] was greater than 100 µM.
On to `CN(C)[C@H]1C(O)=C(C(N)=O)C(=O)[C@@]2(O)C(O)=C3C(=O)c4c(O)ccc(Cl)c4[C@@](C)(O)[C@H]3C[C@@H]12`, for which, in series [7], the outcome was inactive.
Regarding `C=C1c2cccc(O)c2C(=O)C2=C(O)[C@]3(O)C(=O)C(C(N)=O)=C(O)[C@@H](N(C)C)[C@@H]3[C@@H](O)[C@H]12.Cl` [METHACYCLINE HYDROCHLORIDE], the solubility entry in series [8] is reported as “soluble”. Moreover, the outcome in series [7] was inactive.
In series [7], `NC[C@@H]1O[C@H](O[C@H]2[C@@H](O)[C@H](O[C@@H]3[C@@H](O)[C@H](N)C[C@H](N)[C@H]3O[C@H]3O[C@H](CN)[C@@H](O)[C@H](O)[C@H]3N)O[C@@H]2CO)[C@H](N)[C@@H](O)[C@@H]1O` (stereo in doubt; form 1) [FRAMYCETIN] returned a dissociation constant (Kd) of 6 µM.
As for `Nc1ccc2cc3ccc(N)cc3nc2c1`, the residual activity in [1] was found to be 93%.
Consider `Cc1c2oc3c(C)ccc(C(=O)N[C@@H]4C(=O)N[C@H](C(C)C)C(=O)N5CCC[C@H]5C(=O)N(C)CC(=O)N(C)[C@@H](C(C)C)C(=O)O[C@@H]4C)c3nc-2c(C(=O)N[C@@H]2C(=O)N[C@H](C(C)C)C(=O)N3CCC[C@H]3C(=O)N(C)CC(=O)N(C)[C@@H](C(C)C)C(=O)O[C@@H]2C)c(N)c1=O` (I: T[dV]P[Sar][NMeV] / II: T[dV]P[Sar][NMeV]; ester I:1-I:C, II:1-II:C; linker I:N-II:N via Actinocin(9to1)), for which the inhibition result in series [1] was “inactive”.
Regarding `CN(C)c1ccc(O)c2c1C[C@H]1C[C@H]3[C@H](N(C)C)C(O)=C(C(N)=O)C(=O)[C@@]3(O)C(O)=C1C2=O`, the outcome in series [7] was inactive.
On to `NC[C@@H]1O[C@@H](O[C@H]2[C@H](O)[C@@H](O[C@H]3O[C@H](CO)[C@@H](O)[C@H](N)[C@H]3O)[C@H](N)C[C@@H]2N)[C@@H](O)[C@H](O)[C@H]1O` [KANAMYCIN A], for which, in series [2], the Activity result is “Dose-dependent effect”. The Tm in [9] was greater than 70 °C; in series [3], 64 °C; in [5], 55 °C. In addition, the Kd in series [7] was found to be 141 µM.
As to `CN[C@@H]1[C@@H](O[C@H]2O[C@H](CO)[C@@H](N)[C@H](O)[C@H]2O)OC2C[C@@H](N)[C@@H](O[C@H]3[C@H](O)[C@@H](O)[C@H](N)C[C@@H]3N)OC2[C@@H]1O` (stereo partly specified), in series [1], the residual activity is 10%.
Compound GENTAMICIN yielded a Kd in series [7] greater than 100 µM.
For the compound `COc1cccc2c1C(=O)c1c(O)c3c(c(O)c1C2=O)C[C@@](O)(C(C)=O)C[C@@H]3O[C@H]1C[C@H](N)[C@H](O)[C@H](C)O1`, in series [1], the residual activity was determined as 19%.
Still for that read-out and setting: in the case of `COc1cccc2c1C(=O)c1c(O)c3c(c(O)c1C2=O)C[C@@](O)(C(=O)CO)C[C@@H]3O[C@H]1C[C@H](N)[C@H](O)[C@H](C)O1` it was 83%.
Turning to `NC[C@H]1O[C@H](O[C@H]2[C@H](O)[C@@H](O[C@H]3O[C@H](CO)[C@@H](O)[C@H](N)[C@H]3O)[C@H](N)C[C@@H]2N)[C@H](N)[C@@H](O)[C@@H]1O` [BEKANAMYCIN], in [7], the Kd came to 6 µM.
For `CCO.C[C@H]1c2cccc(O)c2C(=O)C2=C(O)[C@]3(O)C(=O)C(C(N)=O)=C(O)[C@@H](N(C)C)[C@@H]3[C@@H](O)[C@@H]21.Cl.O`, the solubility entry in series [8] is reported as “soluble”. In addition, the outcome in series [7] was inactive.
For `Cc1c2c(c(O)c3c(O)cccc13)C(=O)[C@]1(O)C(=O)C(C(N)=O)=C(O)[C@@H](N(C)C)[C@@H]1C2.Cl` [ANHYDROTETRACYCLINE HYDROCHLORIDE] the same measures were “soluble” and “inactive”.
As to BLEOMYCIN, the inhibition entry in series [1] was “inactive”.
Take `CN(C)[C@@H]1C(O)=C(C(N)=O)C(=O)[C@@]2(O)C(O)=C3C(=O)c4c(O)ccc(Cl)c4[C@@H](O)[C@H]3C[C@@H]12.Cl` [DEMECLOCYCLINE HYDROCHLORIDE]: the solubility result in [8] was “soluble”. In addition, the outcome in [7] was inactive.
